Cc1ccc(C(=O)O)cc1
solubility (mole fraction)
Details | in acetic acid | in methanol
283.15 K | 0.043 | 0.02
288.15 K | 0.048 | 0.021
293.15 K | 0.053 | 0.023
298.15 K | 0.059 | 0.027
303.15 K | 0.064 | 0.029
308.15 K | 0.07 | 0.033
313.15 K | 0.077 | 0.038
318.15 K | 0.085 | 0.041
323.15 K | 0.095 | 0.047
328.15 K | 0.103 | 0.054
333.15 K | 0.113 | 0.061
